Results on three compounds are retold here after ChEMBL document CHEMBL1129473, “Slow-binding inhibition of gamma-aminobutyric acid aminotransferase by hydrazine analogues” (J Med Chem, 1996).

The target in test [1] is T1, 4-aminobutyrate aminotransferase, mitochondrial (Sus scrofa, UniProt P80147). As to the kind of experiment: The Dissociation Constant for Gamma-amino-N-butyrate transaminase.
For test [2], the target named is 4-aminobutyrate aminotransferase, mitochondrial (Sus scrofa) (UniProt P80147). As to the kind of experiment: The Reactivation Kinetic Constant for Gamma-amino-N-butyrate transaminase.
Sequence of 4-aminobutyrate aminotransferase, mitochondrial (Sus scrofa) (P80147 whole entry): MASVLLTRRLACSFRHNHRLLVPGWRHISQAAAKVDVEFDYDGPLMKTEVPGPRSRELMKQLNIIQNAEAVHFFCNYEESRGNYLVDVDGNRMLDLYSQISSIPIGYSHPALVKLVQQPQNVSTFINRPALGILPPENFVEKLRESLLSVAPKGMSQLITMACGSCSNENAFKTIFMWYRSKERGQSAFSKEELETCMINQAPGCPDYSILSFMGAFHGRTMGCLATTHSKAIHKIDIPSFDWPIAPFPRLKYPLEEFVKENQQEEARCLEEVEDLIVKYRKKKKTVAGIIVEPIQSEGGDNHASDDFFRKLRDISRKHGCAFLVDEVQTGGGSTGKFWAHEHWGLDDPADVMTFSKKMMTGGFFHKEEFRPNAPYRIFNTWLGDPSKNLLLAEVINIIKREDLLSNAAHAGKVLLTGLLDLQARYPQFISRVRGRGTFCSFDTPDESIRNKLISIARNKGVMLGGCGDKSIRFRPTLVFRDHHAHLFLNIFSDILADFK
The target is the same in test [3]. As to the kind of experiment: Inhibitory rate constant against Gamma-amino-N-butyrate transaminase.
Test [4] shares this target. As to the kind of experiment: Dissociation constant of the Gamma-amino-N-butyrate transaminase.
In test [5] the target is T1, 4-aminobutyrate aminotransferase, mitochondrial. The experiment in a line: Inhibitory activity against Gamma-amino-N-butyrate transaminase.

Where a name gives a salt, the structure may show the parent alone.

T1 sequence (P80147 whole entry): as above

For `NNCCC(=O)O`, the Kd (usually the concentration at which binding is half-saturated) in test [1] was less than 20 nM. For the same compound, the Kreact in test [2] stood at 0.0069 min⁻¹.
As for `NNCc1cccc(O)c1` [3-HYDROXYBENZYLHYDRAZINE DIHYDROCHLORIDE], in test [3], the K3 worked out at 330 M⁻¹ s⁻¹. Further, the K4 in test [4] is 0.005 min⁻¹. This compound also had a Kd in test [1] of 460 nM. Besides, in test [5], affinity was put at a Ki of 300 nM. In test [2], the Kreact was determined as 0.02 min⁻¹.
The matching figures for `CNN` [METHYLHYDRAZINE]: 34.7 M⁻¹ s⁻¹, 0.0046 min⁻¹, 2800 nM, 2200 nM and 4 min⁻¹.
